{
  "source": "patent US20220112464A1",
  "about": "“VASCULARIZED ORGANOID MODEL INCORPORATING ISOLATED HUMAN MICROVESSEL FRAGMENTS” (Advanced Solutions Life Sciences, LLC, priority 2020, published 2022)",
  "key": {"microvessels": {"test_system": "microvessels", "experiment": "Microvessel growth (vessel length) under different culture media, FIG. 13", "format": "cell-based, human", "details": "medium or supplement used for microvessel culture", "from_the_text": "FIG. 13 is a graph depicting vessel length (mm) of organoids cultured under a variety of conditions (serum free+VEGF, 10% FBS, RPMI/B-27/VEGF, ADM, AMM, RPMI/B-27+IM, RMPI/B-27+Dex, RPMI/B-27+IBMX)."}, "adipose-like organoids [1]": {"test_system": "adipose-like organoids", "experiment": "Lipolysis assay (glycerol production), 3D organoids", "format": "cell-based, human", "details": "1 μM isoproterenol for 4 hours, organoids with and without microvessels", "experimental": "A lipolysis assay was performed on 2D (after 24 days of 2D culture) and 3D cultures (after 17 days of 2D and 7 days of 3D culture), using a commercially available kit (Sigma). Samples were treated with 1 μM isoproterenol for 4 hours. For 2D cultures, supernatants were then mixed with the reaction solution and incubated according to manufacturer's instructions. For 3D cultures, organoids were homogenized in the supernatant after isoproterenol incubation using a plastic pestle, to release glycerol trapped inside the organoid. The homogenized sample was briefly centrifuged, and supernatants were used for the remainder of the manufacturer's protocol. Samples were read at 570 nm using a plate reader (BioTek Instruments). For 2D cultures, samples cultured in FBS were used as control samples that will not undergo lipolysis. For 3D samples, negative controls were not treated with isoproterenol."}, "adipose-like organoids [2]": {"test_system": "adipose-like organoids", "experiment": "TNF-α challenge with IL-6 ELISA", "format": "cell-based, human", "details": "50 ng/ml TNF-α, approximately 24 hours, organoids with and without microvessels", "experimental": "(§1) Adipose organoids were seeded and cultured as described above. After 7 days of culture, medium was changed from AMM to AMM supplemented with or without 50 ng/ml TNF-α (Peprotech). The following day, organoids were either flash frozen for PCR analysis, fixed for histology, or used for an IL-6 enzyme-linked immunosorbent assay (ELISA).\nOrganoids with and without microvessels and with or without TNF-α treatment were transferred with their supernatants to micro-centrifuge tubes and briefly homogenized with a plastic pestle. Samples were diluted and centrifuged for 2 minutes at 12,000 rcf to pellet remaining matrix and cell debris. An ELISA was performed with the supernatant following manufacturer instructions (R&D systems) to measure secreted interleukin-6 (IL-6) as a marker of adipocyte inflammation and dysfunction."}, "adipose-like organoids [3]": {"test_system": "adipose-like organoids", "experiment": "TNF-α challenge with RT-PCR of adipocyte markers", "format": "cell-based, human", "details": "TNF-α treatment", "experimental": "as §1\nRNA was extracted from either 2D cultures or 3D organoids using a Qiagen RNeasy Plus Micro kit following manufacturer's protocols. RNA was converted to cDNA with SuperScript™ IV VILO™ Master Mix (Fisher Scientific). cDNA was amplified with human primers (IDT Technologies) listed in Table 1. Primers for insulin receptor were designed using Primer3 software (NIH) and verified using BLAST database (NIH), with gene coding obtained from GenBank (NIH).\nReal-time PCR was performed using a SYBER master mix (Fisher Scientific) and CFX96 Real Time System (Bio Rad). Adiponectin and PPAR-γ expression were normalized to GAPDH (IDT Technologies) and compared to either FBS treated controls (2D) or organoids without microvessels (3D). After RT-PCR, amplified cDNA was loaded into a 2% agarose gel and run at 90V. Gels were imaged for SYBER green on a gel scanner (Azure Biosystems)."}, "human microvessels": {"test_system": "human microvessels", "details": "50 ng/ml VEGF in serum free medium, 6 days of culture, versus no VEGF"}},
  "data": [
    {"compound": "CC(C)Cn1c(=O)n(C)c(=O)c2[nH]cnc21", "note": "[IBMX, 3-isobutyl-1-methylxanthine]", "values": [
      {"measurement": "microvessel growth", "setting": "microvessels", "value": "permanently impeded microvessel growth"}
    ]},
    {"compound": "CC(C)NCC(O)c1ccc(O)c(O)c1", "note": "(stereo not drawn) [isoproterenol]", "values": [
      {"measurement": "glycerol production in response to isoproterenol", "setting": "adipose-like organoids [1]", "value": "produced glycerol"}
    ]},
    {"compound": "TNF-α", "values": [
      {"measurement": "IL-6 secretion", "setting": "adipose-like organoids [2]", "value": "dramatically increased IL-6 secretion"},
      {"measurement": "adiponectin expression", "setting": "adipose-like organoids [3]; organoids with microvessels", "value": "small but distinct downregulation"},
      {"measurement": "adiponectin expression", "setting": "adipose-like organoids [3]; organoids with no microvessels", "value": "changed minimally"}
    ]},
    {"compound": "vascular endothelial growth factor [VEGF]", "values": [
      {"measurement": "vascular growth / vessel density of microvessels", "setting": "human microvessels", "value": "significantly increased vascular growth"}
    ]}
  ]
}
